Experimental data reported in patent publication US12116343B2, “Inhibitors of APOL1 and methods of using same” (Vertex Pharmaceuticals Incorporated, priority 2020, dated 2024).

These compounds were tested against T1, G1 APOL1 (Homo sapiens, UniProt O14791, I384M/S342G) (assay: Acute APOL1 Thallium Assay with inducible stable clones of HEK 293 cells). Conditions: HEK 293 T-Rex cells expressing G1 APOL1; read-out: Thallium Assay (IC50).
T1 construct: expressed in transfected cells
T1 sequence (O14791 28-398 S342G/I384M): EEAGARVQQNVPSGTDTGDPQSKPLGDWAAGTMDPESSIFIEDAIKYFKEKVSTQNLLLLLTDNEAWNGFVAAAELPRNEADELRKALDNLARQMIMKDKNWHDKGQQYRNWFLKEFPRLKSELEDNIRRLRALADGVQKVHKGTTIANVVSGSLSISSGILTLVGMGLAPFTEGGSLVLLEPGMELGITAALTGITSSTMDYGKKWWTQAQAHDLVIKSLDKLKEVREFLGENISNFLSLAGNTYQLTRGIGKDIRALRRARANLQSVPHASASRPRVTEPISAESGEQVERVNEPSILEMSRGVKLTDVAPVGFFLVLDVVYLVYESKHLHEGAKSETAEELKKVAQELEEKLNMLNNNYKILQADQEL
Assay type: cell-based
In short: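 Tetracycline-inducible HEK293 T-Rex clone G1 DC3.25 expressing G1 APOL1, plated at 26000 cells/well in Opti-MEM with tetracycline induction. APOL1 pore activity read on FLIPR as fluorescence increase from Tl+ influx into cells loaded with a Tl+-sensitive AM-ester dye.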

First: CC(C)(CO)NC(=O)[C@H]1C[C@H](c2c(-c3ccc(F)cc3)[nH]c3c(F)cc(F)cc32)C1 [Compound 31]
Second: C#CC(CO)NC(=O)[C@H]1C[C@H](c2c(-c3ccc(F)cc3)[nH]c3c(F)cc(F)cc32)C1 (some centres unmarked) [Compound 196]
The IC50 of the first is lower: less than 250 nM for the first, 250 to 1000 nM for the second. The first is the more potent here.

Compared with `O=C(NC[C@H]1CC[C@@H](CO)O1)[C@H]1C[C@H](c2c(-c3ccc(F)cc3)[nH]c3c(F)cc(F)cc32)C1` [Compound 189], `O=C(N[C@H]1CC[C@H]1O)[C@H]1C[C@H](c2c(-c3ccc(F)cc3)[nH]c3c(F)cc(F)cc32)C1` [Compound 181] is lower in IC50: greater than 1000 nM for the first, 250 to 1000 nM for the second.

`CN(C(=O)[C@H]1C[C@H](c2c(-c3ccc(F)cc3)[nH]c3c(F)cc(F)cc32)C1)C1COCC1O` (some centres unmarked) [Compound 205] and `O=C(N[C@H]1CNC[C@@H]1O)[C@H]1C[C@H](c2c(-c3ccc(F)cc3)[nH]c3c(F)cc(F)cc32)C1` [Compound 212] cannot be ordered by IC50: greater than 1000 nM for the first, greater than 1000 nM for the second.

Going from `O=C(NCCn1cncn1)[C@H]1C[C@H](c2c(-c3ccc(F)cc3)[nH]c3c(F)cc(F)cc32)C1` [Compound 36] to `Cc1ccn(CCNC(=O)[C@H]2C[C@H](c3c(-c4ccc(F)cc4)[nH]c4c(F)cc(F)cc43)C2)n1` [Compound 35], the IC50 rises from less than 250 nM to greater than 1000 nM. The first is the more potent here.

First: Cc1nnc(CNC(=O)[C@H]2C[C@H](c3c(-c4ccc(F)cc4)[nH]c4c(F)cc(F)cc43)C2)o1 [Compound 172]
Second: Cc1cnc(NC(=O)[C@H]2C[C@H](c3c(-c4ccc(F)cc4)[nH]c4c(F)cc(F)cc43)C2)o1 [Compound 24]
The IC50 of the first is lower: 250 to 1000 nM for the first, greater than 1000 nM for the second.

First: O=C([C@H]1C[C@H](c2c(-c3ccc(F)cc3)[nH]c3c(F)cc(F)cc32)C1)N1CCC[C@H]1CO [Compound 210]
Second: O=C([C@H]1C[C@H](c2c(-c3ccc(F)cc3)[nH]c3c(F)cc(F)cc32)C1)N1CC[C@@H]1CO [Compound 195]
The IC50 of the first is higher: greater than 1000 nM for the first, less than 250 nM for the second. The second is the more potent here.

`O=C1NCCCC1NC(=O)[C@H]1C[C@H](c2c(-c3ccc(F)cc3)[nH]c3c(F)cc(F)cc32)C1` (some centres unmarked) [Compound 23] and `O=C(N[C@@H]1CCOC1)[C@H]1C[C@H](c2c(-c3ccc(F)cc3)[nH]c3c(F)cc(F)cc32)C1` [Compound 19] fall in the same range of IC50: 250 to 1000 nM for the first, 250 to 1000 nM for the second.

First: O=C([C@H]1C[C@H](c2c(-c3ccc(F)cc3)[nH]c3c(F)cc(F)cc32)C1)N1CCOC[C@@H]1CO [Compound 219]
Second: O=C(NC1(CO)CCOC1)[C@H]1C[C@H](c2c(-c3ccc(F)cc3)[nH]c3c(F)cc(F)cc32)C1 (some centres unmarked) [Compound 194]
The IC50 of the first is higher: 250 to 1000 nM for the first, less than 250 nM for the second. The second is the more potent here.

`Cn1cncc1CNC(=O)[C@H]1C[C@H](c2c(-c3ccc(F)cc3)[nH]c3c(F)cc(F)cc32)C1` [Compound 174] and `Cn1ccc(NC(=O)[C@H]2C[C@H](c3c(-c4ccc(F)cc4)[nH]c4c(F)cc(F)cc43)C2)n1` [Compound 22] cannot be ordered by IC50: greater than 1000 nM for the first, greater than 1000 nM for the second.

`O=C(NCCn1cnnc1)[C@H]1C[C@H](c2c(-c3ccc(F)cc3)[nH]c3c(F)cc(F)cc32)C1` [Compound 39] and `O=C(NCCn1cccc1)[C@H]1C[C@H](c2c(-c3ccc(F)cc3)[nH]c3c(F)cc(F)cc32)C1` [Compound 34] cannot be ordered by IC50: greater than 1000 nM for the first, greater than 1000 nM for the second.
